Source: patent US10548313B2, “Acetyl-CoA carboxylase modulators” (Monsanto Technology LLC, priority 2013, dated 2020)
pIC50: −log10 of the molar value. Values joined by “and” are separate entries in the source; they are usually repeats but may differ in a detail not shown here. Equal values may be shown once. Read-outs that look alike come from different tables or passages of the source.

Key:
[1] = system: Collectotrichum graminicola; experiment: Fungal growth inhibition assay, Collectotrichum graminicola; assay type: cell-based; details: Colletotrichum graminicola, 48 hours, read-out: C. graminicola % growth inhibition at 48 hours
Description: (§1) Spores were isolated from previously sub-cultured plates of Botrytis cinerea, Phytophthora capsici, Fusarium moniliforme, Fusarium viguliforme, Collectotrichum graminicola, and Diplodia maydis. All spores were filtered and collected in a sterile glass bowl to isolate the spores from the mycelia. The isolation and sub-culture plate condition for each pathogen is described below.
Spore isolation for C. graminicola: A 1-2 week old oatmeal agar (pre-mix) plate was removed from 26° C. incubator with a light/dark 12 hour cycle and the mycelia were treated with 10-15 ml of filter sterilized distilled water. The mycelia were scraped to re-suspend the spores. The spores were then collected in a sterile filter bowl containing a piece of sterile cheesecloth and poured into a conical tube.
(§2) After spore isolation, pathogen spores were counted on a hemocytometer to calculate the spores/ml. In 17% V8 liquid media containing 3 g/L CaCO3, isolated spores were diluted to individual concentrations based on the growth curves at 48 hours of each pathogen. The spore concentrations for each pathogen were as follows: B. cinerea—10,000 sp/ml; P. capsici—300 sp/ml; F. monliforme—500 sp/ml; F. virguliforme—500 sp/ml; C. graminicola—3,000 sp/ml; and D. maydis—3,000 sp/ml.
(§3) Chemistry stocks were dissolved in DMSO at 2.5 mg/ml. Chemistry was diluted in a 96-well stock plate in five-fold dilutions to obtain a final concentration of 50, 10, and 2 ppm in vitro. The final concentration of the positive control after the five-fold dilutions was as follows: soraphen—0.5, 0.1, and 0.02 ppm. Negative controls on each plate included 2% DMSO, water containing spores and media, and a blank for background subtraction.
(§4) In a 96-well plate the spore solution, chemistries, and controls were combined to make the final solution concentrations mentioned above. Upon addition of the chemistry, an OD600 reading was done to assess chemical precipitation. The 96-well plates were incubated in plastic tubs containing wet paper towels under the following conditions, 25° C. in the dark for P. capsici and B. cinerea or 26° C. with light/dark cycle for C. graminicola, D. maydis, F. virguliforme, F. monliforme. Plate readings were repeated at 24 and 48 hrs. Visual ratings were performed at 24 and 48 hrs to check for precipitation and confirm efficacy. Visual and OD600 ratings of the chemistry at 48 hours were compared to the 2% DMSO control to determine the percent of pathogen growth inhibition.

Diplodia maydis = experiment: Fungal growth inhibition assay, Diplodia maydis; assay type: cell-based; details: 48 hours, read-out: D. maydis % growth inhibition at 48 hours
Description: as §1
Spore isolation for D. maydis: A 3-4 week old PDA (pre-mix) plate was removed from 26° C. incubator with a light/dark 12 hour cycle and the mycelia were treated with 6-7 ml of sterile distilled water, scraped into a sterile petri dish, and smashed to open the pycnidia. The spores were then collected in a sterile filter bowl containing a fluted piece of filter paper and poured into a conical tube.
as §2, §3, §4

Fusarium virguliforme = experiment: Fungal growth inhibition assay, Fusarium virguliforme; assay type: cell-based; details: 48 hours, read-out: F. virguliforme % growth inhibition at 48 hours
Description: as §1
Spore isolation for F. virguliforme: A 2-3 week old PDA (pre-mix) plate containing cefotaxime (100 mg/L) and kanamycin (50 mg/L) was removed from 26° C. incubator with a light/dark 12 hour cycle and the mycelia were treated with 5-10 ml of filter sterilized distilled water. The mycelia were scraped to re-suspend the spores. The spores were then collected in a sterile filter bowl containing a fluted piece of filter paper and poured into a conical tube.
as §2, §3, §4

[2] = target: Ustilago maydis acetyl CoA carboxylase (ACCase) (Mycosarcoma maydis (Ustilago maydis), UniProt A0A0D1DYD5); experiment: ACCase enzymatic assay (coupled PK/LDH, NADH OD340); assay type: biochemical
Description: Ustilago maydis acetyl CoA carboxylase (ACCase) was cloned, expressed, and purified as described (Weatherly et al, Biochem. J., 2004) and the test compounds were tested in a 96-well plate format. Primary in vitro screening consisted of obtaining dose response data at 100, 33, 10, and 1 μM inhibitor. Actives in the primary screen were re-tested to establish IC50 values.
Direct detection of the conversion of acetyl CoA to malonyl CoA by ACCase was not feasible, but during this process ATP is converted to ADP which allowed for detection through a standard reaction coupling with ADP recycling to the oxidation of NADH. Thus, ACCase activity was measured via kinetic OD340 measurements of the conversion of NADH to NAD in a coupled reaction involving the conversion of phosphoenolpyruvate (PEP) to lactate.
The complete 200 ul reaction mixture contained 52.5 mM HEPES (pH8), 2.625 mM MgCl2, 1 mM ATP, 0.525 mM DTT, 11 mM NaHCO3, 1% DMSO with or without inhibitor, 1× pyruvate kinase/lactate dehydrogenase (PK/LDH), 0.3 mM NADH, 0.5 mM PEP, and 5 μg ACCase. The reactions were incubated at 30° C. for 10 minutes and then initiated by the addition of 0.33 mM acetyl CoA. The initiated reactions were read immediately via plate reader at OD340 and kinetic readings were acquired every 20 s for 15 minutes while keeping the temperature at 30° C.
A slope of the kinetic curve was determined by using the 2 to 7 minute data which was then calculated as percent inhibition relative to the no inhibitor control.
The primary screens were conducted in duplicate and the IC50's conducted in triplicate. Averages were reported along with standard deviation calculation to generate error bars.
Each plate contained its own controls and consisted of a DMSO only control, 5-fold titration series of soraphen from 2 μM to 3.2 nM, and an ADP coupled reaction control.

Botrytis cinerea = experiment: Fungal growth inhibition assay, Botrytis cinerea; assay type: cell-based; details: 48 hours, read-out: B. cinerea % growth inhibition at 48 hours
From the text: as §1
Spore isolation for B. cinerea: A 2-3 week old V8 (17%)+CaCO3 (3 g/L)+20 g agar plate was removed from room temperature and the mycelia were treated with 5-10 ml of filter sterilized Triton X 100 (.05%). The mycelia were scraped to re-suspend the spores. The spores were then collected in a sterile filter bowl containing a fluted piece of filter paper and poured into a conical tube.
as §2, §3, §4

Phytophthora capsici = experiment: Fungal growth inhibition assay, Phytophthora capsici; assay type: cell-based; details: 48 hours, read-out: P. capsici % growth inhibition at 48 hours
From the text: as §1
Spore isolation for P. capsici: Three to five days prior to the assay a 2-3 week old V8 (17%)+CaCO3 (3 g/L)+20 g agar plate was removed from a dark 25° C. incubator and cut up into small chunks. One plate was separated into two deep well plates and rinsed with sterile distilled water three times. The cut up pieces were incubated under light in a sterile filter hood with 25 ml of sterile distilled water. On the day of the assay the water was removed and 5-7 ml of fresh sterile distilled water was added. One plate was incubated at 4° C. for 45-60 minutes and then placed at room temperature for about 45-60 minutes. The spores were collected in a sterile filter bowl containing a fluted piece of filter paper. The spores were vortexed in a conical tube for 30-60 seconds to remove the flagella of the zoospores after isolation.
as §2, §3, §4

Saccharomyces cerevisiae = experiment: Yeast growth inhibition assay; assay type: cell-based; details: for inhibition at 3.7 µM: read-out: S. cerevisiae % growth inhibition at 48 hours, 3.7 μM; for inhibition at 11.1 µM: read-out: S. cerevisiae % growth inhibition at 48 hours, 11.1 μM; for inhibition at 33.3 µM: read-out: S. cerevisiae % growth inhibition at 48 hours, 33.3 μM; for inhibition at 100 µM: read-out: S. cerevisiae % growth inhibition at 48 hours, 100 μM
Description: Yeast cells (Ade2 strain) were grown in liquid YPD (1% yeast extract, 2% peptone, 2% dextrose) for 16 hours at 30° C. from previously sub-cultured plates of Saccharomyces cerevisiae. The OD600 of the overnight culture was checked via spectrophotometer and diluted to a concentration of 2×10^4 cells/ml.
Chemistry stocks were dissolved in DMSO to a concentration of 10 mM. Chemistry stocks were further diluted in a 96-well stock plate to obtain final concentrations of 100, 33, 10 and 1 μM in 1% DMSO. The final concentrations of the soraphen positive controls were 400, 40, and 3.2 nM. The negative controls on each plate included a background subtraction control containing yeast and 1% DMSO (without chemistry) and a second contamination control containing YPD (with no yeast) and 1% DMSO (without chemistry).
98 μl liquid YPD was added to 2 μl diluted stock of DMSO per well and mixed thoroughly. After mixing, 100 μl of the diluted yeast solution was added to bring the final yeast concentration to 1×10^4 cells/ml or 2000 cells per well. An initial spectrophotometric reading at OD600 was conducted on the entire plate and served as the 0 hour time point used to subtract any background. […] […] […] All experiments were conducted in triplicate. Averages were reported along with standard deviation calculation to generate error bars. Each plate contained its own controls and consisted of inoculated+DMSO, non-inoculated+DMSO, and a titration series of soraphen at 400, 40, and 3.2 nM.

[3] = Table 1A, values marked a are a result of two or more experiments, read-out: ACCase Inhibitory Activity IC50
[4] = Table 1B, racemate vs single enantiomers, read-out: ACCase Inhibitory Activity of Racemic Mixtures and Single Enantiomers IC50

Chain of Ustilago maydis acetyl CoA carboxylase (ACCase) (A0A0D1DYD5 1-2185): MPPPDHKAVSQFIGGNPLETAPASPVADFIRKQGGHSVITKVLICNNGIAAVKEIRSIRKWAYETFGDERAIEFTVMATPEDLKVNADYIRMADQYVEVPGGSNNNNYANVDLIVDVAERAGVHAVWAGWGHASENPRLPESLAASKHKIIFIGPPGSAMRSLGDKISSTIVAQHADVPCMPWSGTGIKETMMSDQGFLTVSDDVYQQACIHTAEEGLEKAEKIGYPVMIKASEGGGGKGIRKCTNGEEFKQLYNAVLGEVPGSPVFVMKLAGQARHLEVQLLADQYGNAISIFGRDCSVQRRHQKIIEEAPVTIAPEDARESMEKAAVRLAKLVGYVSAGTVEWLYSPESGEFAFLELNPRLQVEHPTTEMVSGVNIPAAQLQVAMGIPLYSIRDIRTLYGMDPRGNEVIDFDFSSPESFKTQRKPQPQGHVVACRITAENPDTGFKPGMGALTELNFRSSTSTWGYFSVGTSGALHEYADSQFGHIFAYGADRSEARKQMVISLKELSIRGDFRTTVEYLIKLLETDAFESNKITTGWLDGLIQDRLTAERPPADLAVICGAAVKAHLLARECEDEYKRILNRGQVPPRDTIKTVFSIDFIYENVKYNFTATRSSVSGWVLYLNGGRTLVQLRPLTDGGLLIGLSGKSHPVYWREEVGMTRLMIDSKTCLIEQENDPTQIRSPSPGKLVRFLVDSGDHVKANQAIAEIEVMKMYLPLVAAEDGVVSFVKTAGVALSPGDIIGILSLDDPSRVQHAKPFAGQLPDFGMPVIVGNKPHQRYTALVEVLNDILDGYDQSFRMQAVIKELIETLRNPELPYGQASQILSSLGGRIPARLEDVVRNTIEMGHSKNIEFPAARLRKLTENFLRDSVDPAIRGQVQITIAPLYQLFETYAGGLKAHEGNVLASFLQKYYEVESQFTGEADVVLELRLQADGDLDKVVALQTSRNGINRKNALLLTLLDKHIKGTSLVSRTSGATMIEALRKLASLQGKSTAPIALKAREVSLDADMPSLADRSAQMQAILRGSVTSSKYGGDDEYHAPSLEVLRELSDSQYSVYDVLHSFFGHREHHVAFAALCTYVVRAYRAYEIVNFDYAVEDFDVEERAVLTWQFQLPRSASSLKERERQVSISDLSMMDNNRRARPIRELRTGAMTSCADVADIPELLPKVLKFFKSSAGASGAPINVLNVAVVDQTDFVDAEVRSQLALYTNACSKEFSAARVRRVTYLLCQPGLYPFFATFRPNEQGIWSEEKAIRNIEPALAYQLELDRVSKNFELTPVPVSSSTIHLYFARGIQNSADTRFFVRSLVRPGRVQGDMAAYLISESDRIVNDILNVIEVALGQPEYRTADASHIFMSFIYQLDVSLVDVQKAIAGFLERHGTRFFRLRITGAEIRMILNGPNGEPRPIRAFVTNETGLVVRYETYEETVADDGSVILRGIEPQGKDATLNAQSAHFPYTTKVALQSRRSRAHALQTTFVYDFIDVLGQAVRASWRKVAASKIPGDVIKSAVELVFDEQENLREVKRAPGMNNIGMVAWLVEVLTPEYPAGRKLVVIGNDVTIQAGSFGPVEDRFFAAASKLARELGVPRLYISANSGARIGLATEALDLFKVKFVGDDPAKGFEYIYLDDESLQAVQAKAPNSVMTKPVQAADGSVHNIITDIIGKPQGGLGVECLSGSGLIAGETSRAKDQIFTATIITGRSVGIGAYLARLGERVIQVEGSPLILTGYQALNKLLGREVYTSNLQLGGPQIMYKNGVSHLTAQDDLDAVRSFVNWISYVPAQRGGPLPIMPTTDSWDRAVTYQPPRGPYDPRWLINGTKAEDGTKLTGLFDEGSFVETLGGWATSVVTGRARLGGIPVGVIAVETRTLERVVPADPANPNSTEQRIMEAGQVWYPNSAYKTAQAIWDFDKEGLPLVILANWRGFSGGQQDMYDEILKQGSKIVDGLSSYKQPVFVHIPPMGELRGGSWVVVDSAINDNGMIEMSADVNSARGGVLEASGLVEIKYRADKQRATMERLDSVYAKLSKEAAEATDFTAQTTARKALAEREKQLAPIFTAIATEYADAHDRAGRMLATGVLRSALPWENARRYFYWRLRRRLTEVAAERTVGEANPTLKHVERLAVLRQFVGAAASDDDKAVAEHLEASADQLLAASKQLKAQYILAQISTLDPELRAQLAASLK

`N#Cc1c(-c2cccs2)cc(-c2cccs2)nc1SC(C(=O)O)c1ccccc1` (racemic) [Formula Ia-iii, 2-((3-cyano-4,6-di(thiophen-2-yl)pyridin-2-yl)thio)-2-phenylacetic acid] was tested, and the inhibition at 2 ppm [1] was 27%, the inhibition at 10 ppm [1] was 98% and the inhibition at 50 ppm [1] was 91%. The inhibition at 2 ppm (Diplodia maydis) was 0%, the inhibition at 10 ppm (Diplodia maydis) was 87% and the inhibition at 50 ppm (Diplodia maydis) was 82%. It also gave an inhibition at 2 ppm (Fusarium virguliforme) of 2%, an inhibition at 10 ppm (Fusarium virguliforme) of 84% and an inhibition at 50 ppm (Fusarium virguliforme; 50 ppm) of 90%.
Compound `N#Cc1c(-c2ccccc2)cc(-c2ccccc2)nc1SC(C(=O)O)c1ccccc1` (stereo not shown) [Formula Ia-xii, 2-((3-cyano-4,6-diphenylpyridin-2-yl)thio)-2-phenylacetic acid] has a pIC50 [2, 3] of 6.58, an inhibition at 2 ppm [1] of 6% and an inhibition at 10 ppm [1] of 35%. For the same compound, the inhibition at 50 ppm [1] was 80%, the inhibition at 2 ppm (Diplodia maydis) was 42% and the inhibition at 10 ppm (Diplodia maydis) was 59%. For the same compound, the inhibition at 50 ppm (Diplodia maydis) was 86%, the inhibition at 2 ppm (Botrytis cinerea) was 0% and the inhibition at 10 ppm (Botrytis cinerea) was 6%. For the same compound, the inhibition at 50 ppm (Botrytis cinerea) was 19%, the inhibition at 2 ppm (Phytophthora capsici; 2 ppm) was 16% and the inhibition at 10 ppm (Phytophthora capsici; 10 ppm) was 36%. It also gave an inhibition at 50 ppm (Phytophthora capsici; 50 ppm) of 22%.
`N#Cc1c(C(F)(F)F)cc(-c2cccs2)nc1SC(C(=O)O)c1ccccc1` (racemic) [Formula Ia-ii, 2-((3-cyano-6-(thiophen-2-yl)-4-(trifluoromethyl)pyridin-2-yl)thio)-2-phenylacetic acid] gave a pIC50 [2, 4] of 5.69, an inhibition at 3.7 µM (Saccharomyces cerevisiae) of 7% and an inhibition at 11.1 µM (Saccharomyces cerevisiae) of 0%. The inhibition at 33.3 µM (Saccharomyces cerevisiae) was 12% and the inhibition at 100 µM (Saccharomyces cerevisiae) was 51%.
Compound `N#Cc1c(C(F)(F)F)cc(-c2ccc(Br)cc2)nc1SC(C(=O)O)c1ccccc1` (stereo not shown) [Formula Ia-x, 2-((6-(4-bromophenyl)-3-cyano-4-(trifluoromethyl)pyridin-2-yl)thio)-2-phenylacetic acid] has a pIC50 [2, 3] of 5.71, an inhibition at 2 ppm (Botrytis cinerea) of 0% and an inhibition at 10 ppm (Botrytis cinerea) of 12%. The inhibition at 50 ppm (Botrytis cinerea) was 25%, the inhibition at 3.7 µM (Saccharomyces cerevisiae) was 12% and the inhibition at 11.1 µM (Saccharomyces cerevisiae) was 13%. For the same compound, the inhibition at 33.3 µM (Saccharomyces cerevisiae) was 46% and the inhibition at 100 µM (Saccharomyces cerevisiae) was 99%.
`CCc1nc(SC(C(=O)O)c2ccccc2)c(C#N)c2c1CCCC2` (stereo not shown) [Formula Ia-xv, 2-((4-cyano-1-ethyl-5,6,7,8-tetrahydroisoquinolin-3-yl)thio)-2-phenylacetic acid] gave a pIC50 [2, 3] of 4.99, an inhibition at 2 ppm (Fusarium virguliforme) of 10% and an inhibition at 10 ppm (Fusarium virguliforme) of 48%.
In the case of `COc1ccc(-c2cc(-c3cccs3)nc(SC(C(=O)O)c3ccccc3)c2C#N)cc1` (racemic) [Formula Ia-xiv, 2-((3-cyano-4-(4-methoxyphenyl)-6-(thiophen-2-yl)pyridin-2-yl)thio)-2-phenylacetic acid], the pIC50 [2, 4] was 7.04 and 6.85, the inhibition at 2 ppm [1] was 6% and the inhibition at 10 ppm [1] was 32%. The inhibition at 50 ppm [1] was 79%, the inhibition at 2 ppm (Botrytis cinerea) was 14% and the inhibition at 10 ppm (Botrytis cinerea) was 8%.
With `COc1ccc(-c2cc(-c3ccc[s+]3[O-])nc(OC(C(=O)O)c3ccccc3)c2C#N)cc1` (stereo not shown) [Formula Ia-xxviii, 2-((3-cyano-4-(4-methoxyphenyl)-6-(1-oxidothiophen-2-yl)pyridin-2-yl)oxy)-2-phenylacetic acid] the pIC50 [2, 3] was 6.71, the inhibition at 2 ppm (Botrytis cinerea) was 14% and the inhibition at 10 ppm (Botrytis cinerea) was 27%.
Compound `COc1ccc(-c2cc(C(F)(F)F)c(C#N)c(SC(C(=O)O)c3ccccc3)n2)c(OC)c1` (stereo not shown) [Formula Ia-viii, 2-((3-cyano-6-(2,4-dimethoxyphenyl)-4-(trifluoromethyl)pyridin-2-yl)thio)-2-phenylacetic acid] has a pIC50 [2, 3] of 5.76, an inhibition at 3.7 µM (Saccharomyces cerevisiae) of 6% and an inhibition at 11.1 µM (Saccharomyces cerevisiae) of 23%. The inhibition at 33.3 µM (Saccharomyces cerevisiae) was 62% and the inhibition at 100 µM (Saccharomyces cerevisiae) was 100%.
